What was measured:
[1] = acute oral toxicity in rats; format: in vivo, rat (Sprague-Dawley); details: rat, in vivo, 14 days
Experimental: (§1) The microcapsules of aspirin M1 prepared according to Example 1 were subjected to a toxicological study by comparison with commercial aspirin (CA) in the form of a white powder. The acute toxicity of these two pharmaceutical forms of aspirin was evaluated and compared by oral administration to rats.
(§2) Each of the two formulations of the product was administered orally to groups of 10 Sprague-Dawley rats (5 males and 5 females) in a volume of 10 ml/kg and in suspension in 0.5% carboxymethyl cellulose. […] All the animals were placed on a water diet before the treatment.
(§3) The mortality, the general behavior and the weight change of the surviving animals were followed for a period of 14 days after the single administration of the product. An anatomicopathological examination was carried out on each of the animals found dead or sacrificed at the end of the study.
(§4) The LD50 was calculated by Finney's method.

Sprague-Dawley rats = assay: acute oral toxicity in rats; format: in vivo, rat (Sprague-Dawley)
Experimental: as §1, §2, §3, §4

serum thromboxane B2 = assay: inhibition of serum thromboxane B2 after repeated administration for 28 days; format: in vivo, human; details: as from the third day of treatment; 320 mg encapsulated or 350 mg control ASA daily
Experimental: (§5) Twelve healthy male volunteers were assigned to one or other of the following two treatments according to a randomization schedule obtained by drawing lots. Group A received one 320 mg gelatin capsule of encapsulated ASA (microcapsules M1 of Example 1) orally every morning for 28 days. Group B received 350 mg of non-encapsulated control ASA in solution every morning for 28 days.
In both cases, the subjects took the treatments with 200 ml of water.
Samples (5 cl) for measurement of the serum thromboxane B2 were taken before administration of the daily treatment on D1, D2, D3, D4, D5, D14, D21, D27, D28 and D42.
(§6) The aspirin and salicylic acid were analyzed using an HPLC method specially developed for assaying low levels in biological media. The serum thromboxane B2 was analyzed using an enzyme immunoassay method described by […] et al. [Analytical Chemistry 57, 1170-1173 (1985); Ann. Biol. Clin. 43, 475-484 (1985)]. For the urine samples, the 11-dehydrothromboxane B2, dinorthromboxane B2 and dinor-6-ketoprostaglandin F1α were analyzed by the method cited above, with prior extraction in the solid phase and purification by thin layer chromatography. This method was validated by gas chromatography coupled with mass spectrometry using a negative ion ionization detector [LELLOUCHE et al., Prostaglandine 40, 297-310 (1990)].

[2] = test system: thromboxane B2 of renal origin; assay: urinary excretion of thromboxane B2 (renal origin), repeated administration; format: in vivo, human; details: 28 days; 320 mg encapsulated or 350 mg control ASA daily
Experimental: as §5
(§7) During each period, urine samples were taken from each subject for assaying the creatininuria and measuring the platelet and vascular prostaglandins.
(§8) The morning urine was collected at 7 am on days D1, D2, D14, D27 and D28. The subjects were asked to empty their bladder between midnight and 1 am and then not to urinate again until the morning so that the 6-hour urine could be obtained. The morning urination was performed before the subjects got up. Of each sample collected:
(§9) 40 ml were transferred to two appropriately labeled 20 ml polypropylene tubes, which were then frozen immediately at -20° C.
(§10) Thromboxane B2 and 6-ketoprostaglandin F1α are metabolites of […] of renal origin.

[3] = test system: urinary dinorthromboxane B2; assay: inhibition of urinary dinorthromboxane B2, repeated administration; format: in vivo, human; details: 28 days; 320 mg encapsulated or 350 mg control ASA daily
Experimental: as §5, §7
as §8, with “collected: […]” for “collected:”
as §6, with “Biol. Clin. 43, 475-484 (1985)].” left out, “This method was validated by gas chromatography coupled with mass spectrometry using a negative ion ionization detector [LELLOUCHE et al., Prostaglandine 40, 297-310 (1990)].” left out

6-ketoprostaglandin F1α = assay: urinary excretion of 6-ketoprostaglandin F1α (renal origin), repeated administration; format: in vivo, human; details: 28 days; 320 mg encapsulated or 350 mg control ASA daily
Experimental: as §5, §7, §8, §9, §10

prostacycline = assay: inhibition of prostacycline (urinary dinor-6-ketoprostaglandin F1α), repeated administration; format: in vivo, human; details: 28 days; 320 mg encapsulated or 350 mg control ASA daily
Experimental: as §5, §7
as §8, with “collected: […]” for “collected:”
as §6, with “Biol. Clin. 43, 475-484 (1985)].” left out, “This method was validated by gas chromatography coupled with mass spectrometry using a negative ion ionization detector [LELLOUCHE et al., Prostaglandine 40, 297-310 (1990)].” left out

11-dehydrothromboxane B2 = assay: inhibition of urinary 11-dehydrothromboxane B2, repeated administration; format: in vivo, human; details: 28 days; 320 mg encapsulated or 350 mg control ASA daily
Experimental: as §5, §7
as §8, with “collected: […]” for “collected:”
as §6, with “Biol. Clin. 43, 475-484 (1985)].” left out, “This method was validated by gas chromatography coupled with mass spectrometry using a negative ion ionization detector [LELLOUCHE et al., Prostaglandine 40, 297-310 (1990)].” left out

vascular prostacycline = details: daily dose; cited from earlier work
thromboxane = details: daily dose; very substantially below the minimum percentage; cited from earlier work

SMILES: CC(=O)Oc1ccccc1C(=O)O [CA, acetylsalicylic acid]
- LD50 at 336 h [1]: 1430 mg/kg
- autopsy findings (Sprague-Dawley rats; 740 and 1110 mg/kg): no macroscopic anomalies
- autopsy findings (Sprague-Dawley rats; 1670 and 2500 mg/kg, animals found dead): abnormally blackish coloration of the liver, a discoloration with wall thickening in the digestive tract (intestines and stomach) and reddish petechiae in the stomach
- weight change (Sprague-Dawley rats; CA 740-2500 mg/kg (between day 1 and day 5), CRA 2500 mg/kg (throughout the study)): slight drop in the weight gain, related to the dose administered
- general behavior (Sprague-Dawley rats; CA 740-2500 mg/kg, CRA 2500 mg/kg): a drop in the spontaneous activity, related to the dose administered, and piloerection
- LD50, lower limit of the confidence interval (Sprague-Dawley rats; probability threshold of 95%): 936 mg/kg
- LD50, upper limit of the confidence interval (Sprague-Dawley rats; probability threshold of 95%): 2394 mg/kg

SMILES: CC(=O)Oc1ccccc1C(=O)O [control ASA, acetylsalicylic acid]
- inhibition of thromboxane originating from the platelets (serum thromboxane B2): 98.15%
- inhibition of prostaglandins of renal origin (thromboxane B2, first value pair) [2]: 42.8%
- inhibition of urinary metabolite of thromboxane (dinorthromboxane B2, second value pair) [3]: 68.9%
- inhibition of prostaglandins of renal origin (6-ketoprostaglandin F1α, second value pair) (6-ketoprostaglandin F1α): 34.6%
- inhibition of the prostacycline (prostacycline): 43.2%
- inhibition of urinary metabolite of thromboxane (11-dehydrothromboxane B2, first value pair) (11-dehydrothromboxane B2): 75.6%

SMILES: CC(=O)Oc1ccccc1C(=O)O [conventional aspirin, acetylsalicylic acid]
- inhibition of vascular prostacycline (vascular prostacycline): 25%
- thromboxane inhibition (thromboxane): < 95%
